Assay results: patent US20100197605A1, “THERAPEUTIC USE OF PEPTIDE YGLF AND COMBINATION WITH KVLPVPQ” (priority 2007, published 2010)
Where no end group is shown, it is not given here.

Legend:
[1] = system: HIV-1IIIB; assay: HIV-1 antiviral assay in CEM-SS cells (MTS readout)
[2] = system: HCMV strain AD169; assay: HCMV plaque formation assay in MRC-5 cells; assay type: cell-based
Description: Ganciclovir was used as positive control. […] The following day, peptides were added and tested in duplicates.

[3] = system: TNF-a, spleen cells; assay: Th1/Th2 cytokine profiling assay, TNF-a; assay type: cell-based, Balb/c mice; conditions: 10 micrograms per ml; Ovalbumin restimulation; 72 hours
Description: (§1) The Balb/c mice (originated in 1923, it is a popular strain and is used in many different research disciplines. Also classified as an inbred from the production of 20 or more successive brother-sister matings, the Balb/c mouse is albino and small in size) were immunized on Days 1, 15, and 29 with Ovalbumin (Ovalbumin is the main protein found in egg white, commonly used to stimulate an immunological reaction in test animals) in PBS (5 micrograms/injection). On day 50, spleens of the mice were harvested (3 weeks after last boost with Ovalbumin). […] Thereafter, additional Ovalbumin was added to the cells at 10 micrograms/ml for in vitro restimulation of the cells. 72 hours later, cell supernatants were harvested and assayed using the Becton Dickinson Mouse Th1/Th2 Cytokine CBA Kit. This kit can be used to measure Interleukin-2 (IL-2), Interleukin-4 (IL-4), Interleukin-5 (IL-5), Interferon-γ (IFN-γ), and Tumor Necrosis Factor-α (TNF-α) protein levels in a single sample.

[4] = system: IFNγ, spleen cells; assay: Th1/Th2 cytokine profiling assay, IFNγ; assay type: cell-based, Balb/c mice; conditions: 10 micrograms per ml; Ovalbumin restimulation; 72 hours
Description: as §1

[5] = system: IL-2, spleen cells; assay: Th1/Th2 cytokine profiling assay, IL-2; assay type: cell-based, Balb/c mice; conditions: 10 micrograms per ml; Ovalbumin restimulation; 72 hours
Description: as §1

[6] = system: IL-4, spleen cells; assay: Th1/Th2 cytokine profiling assay, IL-4; assay type: cell-based, Balb/c mice; conditions: 10 micrograms per ml; Ovalbumin restimulation; 72 hours
Description: as §1

[7] = system: IL-5, spleen cells; assay: Th1/Th2 cytokine profiling assay, IL-5; assay type: cell-based, Balb/c mice; conditions: 10 micrograms per ml; Ovalbumin restimulation; 72 hours
Description: as §1

[8] = system: HUVEC; assay: Endothelial tube formation assay; assay type: cell-based, human; conditions: 10 micrograms per ml, single peptide, 20 hours
Excerpt: Positive control was vehicle only.

[9] = system: cyclic AMP generation in human peripheral blood mononuclear cells (PBMC); assay: cAMP induction assay (ELISA); assay type: cell-based; conditions: single peptide, 10 min at 37° C.
Description: The cAMP kit was used as an immunoassay for the quantitative determination of cyclic AMP generation in human peripheral blood mononuclear cells (PBMC). PBMC were placed in 96-well microtitier plates (50 microliters of cells at 4×10^6/ml) and 50 microliters of medium alone (background control), forskolin (cAMP positive control; 50 micrograms per ml), or test peptides were added. Plates were mixed and incubated for 10 min at 37° C. and the cells were lysed by the addition of 50 microliters of 3% perchloric acid. NaOH was added to neutralize the samples. Plates were centrifuged for 15 min at 2500 rpm and the supernatants removed. The supernatants (diluted 2-fold in assay buffer) were then assayed for the levels of cAMP by ELISA.

[10] = system: RAW 264.7 cells; assay: Phagocytosis assay (Fluorescein-labeled Escherichia coli, flow cytometry); conditions: 10 micrograms per ml, single peptide, 30 min preincubation, 60 min ingestion
Description: RAW 264.7 (Mouse leukaemic monocyte macrophage cell line) cells were obtained from ATCC and grown in RPMI 1640 medium containing 10% FBS. Cells were incubated in 12×75 mm tubes at 37° C. with test peptides—10 micrograms per ml—for 30 min prior to adding Fluorescein-labeled Escherichia coli bacteria as the agent to be ingested. After the cells were incubated for additional 60 min at 37° C. and allowed to ingest the Fluorescein-labeled Escherichia coli bacteria, cells were fixed with 1% paraformaldehyde. The samples were then analyzed by flow cytometry to determine the amount of phagocytosis as a function of brightness (the greater the phagocytic activity, the more fluorescence in the macrophage population). Data are reported as % positive and the mean fluorescence intensity (MFI) of positively stained cells.

[11] = system: hepatitis B virus (HBV) ayw strain; assay: HBV experimental assay system, HepG2-2.2.15, secreted HBV DNA by TaqMan PCR; assay type: cell-based; conditions: 10 micrograms per ml, six days, HBV DNA in supernatant
[12] = system: Human Peripheral Blood Mononuclear Cells (PBMC), B cell proliferation; assay: B cell proliferation assay (SAC plus Interleukin-2 stimulated PBMC, 3H-thymidine); assay type: cell-based; conditions: 10 micrograms per ml; single peptide; SAC plus IL-2
Description: Human Peripheral Blood Mononuclear Cells (PBMC) were obtained from normal human donors. The B cell proliferation was induced by stimulation of the cells with the B cell mitogen Staphylococcus aureus Cowans I (SAC) plus Interleukin-2, either in the absence (positive proliferation control), or in the presence of test peptides—10 micrograms per ml—to examine their effects on the B cell response. 10^5/well PBMC were plated in 96-well microtiter plates and assayed in duplicate with the peptides. […] At the end of incubation time, the plates were harvested and the cells counted by liquid scintillation for the incorporation of ^3H-thymidine as a measure of B cell proliferation.

With Cc1cn([C@H]2C[C@H](N=[N+]=[N-])[C@@H](CO)O2)c(=O)[nH]c1=O [AZT] as the compound, how does the “antiviral activity of positive control compounds” value [1] read?
The value was “expected levels of antiviral activity”.

How did the “antiviral activity of positive control compound” value [2] turn out when Nc1nc(O)c2ncn(COC(CO)CO)c2n1 [Ganciclovir] was run?
The value was “expected levels of antiviral activity”.

How did the “antiviral activity of positive control compounds” value [1] turn out when CC(C)(C)NC(=O)[C@@H]1CN(Cc2cccnc2)CCN1C[C@@H](O)C[C@@H](Cc1ccccc1)C(=O)N[C@H]1c2ccccc2C[C@H]1O [indinavir] was run?
Its value is “expected levels of antiviral activity”.

Which results are given for “Lys-Val-Leu-Pro-Val-Pro-Gln-OH (KVLPVPQ-OH) [peptide 2]”?
TNF-a spleen cells; TH1 response (% of control) [3]: 90.3 % of control; IFNγ spleen cells; TH1 response (% of control) [4]: 41.5 % of control; IL-2 spleen cells (% of control) [5]: 67.3 % of control; IL-4 spleen cells; TH2 response (% of control) [6]: 94.9 % of control; IL-5 spleen cells; TH2 response (% of control) [7]: 61.6 % of control; inhibition of the tube formation of endothelial cells [8]: 15%; induction of cAMP formation in human peripheral blood cells [9]: 4.1%; increase of the phagocytic activity of murine macrophages [10]: 20.0%

“Tyr-Gly-Leu-Phe-OH (YGLF-OH) [peptide 1]” was tested. Which “inhibition of HBV replication as compared to the virus control infection” value [11] did it give?
The value was “no effect”.

What about the “inhibition of the proliferation of specifically stimulated human B-cells” value [12] of the same compound?
Its value is 18%.

What about the “TNF-a spleen cells; TH1 response (% of control)” value [3] of the same compound?
Its value is 78.9 % of control.

And the “IFNγ spleen cells; TH1 response (% of control)” value [4]?
The value was 58.6 % of control.

And the “IL-2 spleen cells (% of control)” value [5]?
The value was 0.0 % of control.

What about the “IL-4 spleen cells; TH2 response (% of control)” value [6] of the same compound?
Its value is 0.0 % of control.

What about the “IL-5 spleen cells; TH2 response (% of control)” value [7] of the same compound?
The value was 51.1 % of control.

And the “inhibition of the tube formation of endothelial cells” value [8]?
Its value is 24%.

What about the “induction of cAMP formation in human peripheral blood cells” value [9] of the same compound?
The value was 5.1%.

And the “increase of the phagocytic activity of murine macrophages” value [10]?
The value was “no inhibitory or activating effects”.
